# Measured values published in patent publication US8609666B2, “2-morpholino-pyrido[3,2-D]pyrimidines” (Merck Serono SA, priority 2009, dated 2013).
# System: Human recombinant GST-PI3K
# Assay: PI3K induced-lipid phosphorylation scintillation proximity assay (neomycin-coated SPA beads)
# Format: biochemical
# Conditions: amount necessary to achieve 50% inhibition of PI3K; 120 min at room temperature
# Text: The efficacy of compounds of the invention in inhibiting the PI3K induced-lipid phosphorylation may be tested in the following binding assay. The assay combines the scintillation proximity assay technology (SPA, Amersham) with the capacity of neomycin (a polycationic antibiotic) to bind phospholipids with high affinity and specificity. The Scintillation Proximity Assay is based on the properties of weakly emitting isotopes (such as ^3H, ^125I, ^33P). Coating SPA beads with neomycin allows the detection of phosphorylated lipid substrates after incubation with recombinant PI3K and radioactive ATP in the same well, by capturing the radioactive phospholipids to the SPA beads through their specific binding to neomycin. To a 96 wells MTP containing 10 μl of the test compound of Formula (I) (solubilized in 10% DMSO; to yield a concentration of 100, 25, 5.0, 1.25, 0.312, 0.078, 0.0195, 0.00488, 0.00122 and 0.0003 μM of the test compound), the following assay components are added: 1) 10 μL of lipid micelles 2) […] of Kinase buffer ([^33P]γATP162 μM/300 nCi, MgCl2 2.5 mM, DTT 2.5 mM, Na3VO4 25 μM in Hepes 40 mM, pH 7.4) and 3) 10 μL (100 ng) of Human recombinant GST-PI3K (in Hepes 40 mM, pH 7.4, ethylenglycol 4%). After incubation at room temperature for 120 minutes, with gentle agitation, the reaction is stopped by addition of 200 μL of a solution containing 250 μg of neomycin-coated PVT SPA beads, ATP 60 mM and EDTA 6.2 mM in PBS. The assay is further incubated at room temperature for 60 minutes with gentle agitation to allow binding of phospholipids to neomycin-SPA beads. After precipitation of the neomycin-coated PVT SPA beads for 5 minutes at 1500×g, radioactive PtdIns(3)P is quantified by scintillation counting in a Wallac MicroBeta™ plate counter. The values indicated in Table I below refer to the IC50 (μM) with respect to PI3K, i.e. the amount necessary to achieve 50% inhibition of said target. Said values show a considerable inhibitory potency of pyridopyrimidine compounds with regard to PI3K.
row,SMILES,IC50 [nM]
1,"CN(C)c1cc(C(=O)O)nc2c(-c3ccc(F)c(CO)c3)nc(N3CCOCC3)nc12 [Example 49, 8-(Dimethylamino)-4-[4-fluoro-3-(hydroxymethyl)phenyl]-2-morpholin-4-ylpyrido[3,2-d]pyrimidine-6-carboxylic acid]",329
2,"COCCNc1cc(C(=O)O)nc2c(-c3ccc(CO)cc3)nc(N3CCOCC3)nc12 [Example 46, 4-[4-(Hydroxymethyl)phenyl]-8-[(2-methoxyethyl)amino]-2-morpholin-4-ylpyrido[3,2-d]pyrimidine-6-carboxylic acid]",346
3,"O=C(O)c1cc(NCCO)c2nc(N3CCOCC3)nc(-c3cc(O)cc(F)c3)c2n1 [Example 16, 4-(3-Fluoro-5-hydroxy-phenyl)-8-(2-hydroxy-ethylamino)-2-morpholin-4-yl-pyrido[3,2-d]pyrimidine-6-carboxylic acid]",64
4,"COCCNc1cc(C(=O)O)nc2c(-c3ccc(O)cc3)nc(N3CCOCC3)nc12 [Example 5, 4-(4-Hydroxy-phenyl)-8-(2-methoxy-ethylamino)-2-morpholin-4-yl-pyrido[3,2-d]pyrimidine-6-carboxylic acid]",504

# Results, then the compound that gave them:
row,IC50 [nM],SMILES
1,220,"CN(CCO)c1cc(C(=O)O)nc2c(-c3ccc(F)cc3O)nc(N3CCOCC3)nc12 [Example 59, 4-(4-Fluoro-2-hydroxyphenyl)-8-[(2-hydroxyethyl)(methyl)amino]-2-morpholin-4-ylpyrido[3,2-d]pyrimidine-6-carboxylic acid]"
2,10,"CN(CCO)c1cc(C(=O)O)nc2c(-c3cccc(F)c3O)nc(N3CCOCC3)nc12 [Example 37, 4-(3-Fluoro-2-hydroxyphenyl)-8-[(2-hydroxyethyl)(methyl)amino]-2-morpholin-4-ylpyrido[3,2-d]pyrimidine-6-carboxylic acid]"
3,1850,"COCc1cccc(-c2nc(N3CCOCC3)nc3c(N(C)CCO)cc(C(=O)O)nc23)c1 [Example 27, 8-[(2-Hydroxy-ethyl)-methyl-amino]-4-(3-methoxymethyl-phenyl)-2-morpholin-4-yl-pyrido[3,2-d]pyrimidine-6-carboxylic acid]"
4,62,"COCCN(C)c1cc(C(=O)O)nc2c(-c3ccc(F)cc3O)nc(N3CCOCC3)nc12 [Example 51, 4-(4-Fluoro-2-hydroxyphenyl)-8-[(2-methoxyethyl)(methyl)amino]-2-morpholin-4-ylpyrido[3,2-d]pyrimidine-6-carboxylic acid]"

# Target: CK2 protein kinase
# Assay: not given
# Conditions: Fruman et al., 1998; cited from earlier work
row,SMILES,IC50 [nM]
1,O=c1cc(N2CCOCC2)oc2c(-c3ccccc3)cccc12 [LY294002],5000 to 10000
